# Measurements published in US12570614B2, “Phenyl amino pyrimidine compounds and uses thereof” (GlaxoSmithKline LLC, priority 2007, dated 2026).
# Legend:
# [1] = system: CTLL2; experiment: Cellular screening, CTLL2 cells (Alamar Blue); type: cell-based; settings: Mus musculus, CTLL-2; 48-72 hr incubation; read-out: CTLL2_IC50_μM
# Protocol: For screening purposes, compounds were diluted in 96 well plates at a concentration of 20 μM. Plates were warmed at 37° C. for 30 minutes before the assay was performed.
# Cell suspensions were prepared by harvesting cells from culture (the cells used in this test were in late log phase growth with high viability.) Cells were diluted in the appropriate growth medium, as described above, to 1.1× final concentration (from 50,000 cell/mL to 200,000 cell/mL, depending on cell line).
# Compounds to be tested were added (10 μL, 10× final concentration) to a flat bottomed 96-well plate. The cellular suspension (90 μL per well) was then added, and the plate incubated for 48-72 hr at 37° C., 5% CO2. Alamar Blue 10 μL per well was added and the plates returned to the incubator for a further 4-6 hours. The plates were then read at 544 nm.
# Result are given in table 2 where +++ is <1 μM, ++ is <5 μM and + is <20 μM
# [2] = system: growth hormone-stimulated insulin-like growth factor-1 (IGF-1); experiment: Growth hormone-stimulated IGF-1 concentrations in mouse plasma; type: in vivo; settings: female C3/H mice, 50 mg/kg oral gavage 8 h and 30 min prior to GH, 6 h post-GH
# Protocol: Blood samples were collected 6 h post-GH administration, and plasma IGF-1 concentrations measured using an ELISA for mouse IGF-1 (R & D Systems). Different superscripts denote significant differences (p<0.05) between groups detected by one-way ANOVA and Bonferroni's test post-hoc.
# [3] = system: pYSTAT5 in erythroid cells (CD45lo, CD71hi) from bone marrow; experiment: Ex vivo pYSTAT5 flow cytometry in erythroid cells from JAK2 V617F positive patients; type: cell-based, human; settings: 3 μM to 0.0041 μM, one hour, erythropoietin stimulated 10 minutes, patient bone marrow
# Description: To assess the activity of small molecule inhibitors of JAK2 an assay has been developed to quantify the activity of the JAK-STAT pathway by measuring the phosphorylation status of the downstream protein STAT5. After ligand binding, a haemopoietic cytokine receptor undergoes conformational change activating associated JAK2 protein. Activated JAK2 then phosphorylates the intracellular portion of the receptor forming binding sites for the recruitment of intracellular signaling proteins. […]
# Results of flow cytometry experiments are presented in two different formats (FIG. 7C). The pYSTAT5 positive population is quantitated as the percentage of cells in the upper right quadrant of the dot plot graphs (FIGS. 7A and B). […]
# The second format of presentation is presented in the right panel of FIG. 7C. This measurement represents the mean fluorescence intensity in the pYSTAT5 channel and includes both erythroid cells that are stimulated by EPO and those that are not. This is an absolute value measurement of fluorescence and there was variability between these values between the three individuals tested. As the concentration of inhibitor is decreased the mean fluorescence of the total erythroid population moved towards the value of the positive control.
# [4] = system: Ba/F3 TelJAK2 cells; experiment: Subcutaneous tumour model of Ba/F3 TelJAK2 cells in nude mice; type: in vivo, mouse; settings: for tumour volumes compared to Vehicle Control Treated Group: after 14 days of dosing; for mean percentage T/C: dosing day 14
# Protocol: Dosing commenced 11 days post-tumour cell inoculation, when tumours were palpable (mean tumour volume of 6 mm^3). Tumour dimensions were measured twice weekly.
# [5] = system: STAT5 phosphorylation in HEL 92.1.7 cells; experiment: Western blot of STAT5 phosphorylation in HEL cells; type: cell-based, human; settings: 2 hours
# Protocol: The Western blots were treated with a STAT5 phosphospecific antibody and exposed to film for 5 minutes (top blot) and 1 minute (middle blot).
# The human erythroleukemic cell line HEL 92.1.7 was routinely maintained in RPMI 1640 media containing 10% FCS. The day before the experiment, cells were washed twice in PBS, resuspended in RPMI 1640 media containing 1% FCS, and cultured overnight.
# Cells were then placed on ice and washed twice in ice-cold PBS. Washed cell pellets were snap-frozen in liquid nitrogen and stored at −80° C.
# Cell pellets were lysed on ice in RIPA buffer, and lysates clarified by centrifugation (20,000×g, 4° C., 5 min). The protein concentration of lysates was determined by the Bradford method, and equal amounts of protein (60 μg/lane) were separated by SDS-PAGE. Protein was then transferred to PVDF, and Western blotting performed using an antibody that specifically recognizes STAT5 phosphorylated at tyrosine 694. The membrane was then stripped and reprobed with an antibody that recognizes total STAT5 protein.
smiles,measurement,setting,value
"N#CCNC(=O)c1ccc(-c2ccnc(Nc3ccc(N4CCOCC4)cc3)n2)cc1 [Compound 3, N-(cyanomethyl)-4-(2-(4-morpholinophenyl-amino)pyrimidin-4-yl)benzamide]",IC50,[1],< 5 µM
same,plasma IGF-1 concentration,[2],marked decrease
same,effect on pYSTAT5 (STAT5 phosphorylation) in erythroid cells,[3],dose-dependent reduction
same,effect on pYSTAT5 (STAT5 phosphorylation) in erythroid cells,[3]; listed as compound 3,dose-dependent increase in inhibition
same,tumour volumes compared to Vehicle Control Treated Group,[4]; 5 mg/kg,not different
same,mean percentage T/C,[4]; 5 mg/kg/day oral gavage,82%
same,mean percentage T/C,[4]; 10 mg/kg b.i.d. oral gavage,25%
same,tumour volumes compared to Vehicle Control Treated Group,"[4]; 10 mg/kg b.i.d., t-test p<0.05",smaller tumour volumes
same,mean percentage T/C,[4]; 20 mg/kg b.i.d. oral gavage,39%
same,tumour volumes compared to Vehicle Control Treated Group,"[4]; 20 mg/kg b.i.d., t-test p<0.05",smaller tumour volumes
same,effect on STAT5 phosphorylation (Western blot),[5],decrease in STAT5 phosphorylation
